# Measured values published in patent US20030224038A1, “Cross-linkable phosphonate-containing supramolecular complexes and their use for delivery of therapeutic and diagnostic agents” (priority 2002, published 2003).
# How the values were obtained:
# [1] = Dissolution in buffered aqueous solution; type: physicochemical
# [2] = TEM imaging of negatively stained dodeca-5,7-diynoyl phosphonic acid vesicles (size); type: physicochemical
# Protocol: Twice the value of the CMC determined for n-dodecanephosphonic acid (2.94×10^−4 M)^4 was used to assure aggregate formation in these experiments due to the limited amount of the final product. All samples were prepared in the manner described by Schulz, supra, using solutions buffered to a pH of 5.5 with 5 mM MES.
# Samples prepared in the above manner were imaged using TEM by negatively staining the samples with 1% uranyl acetate. FIG. 2 is a picture of unpolymerized vesicles of dodeca-5,7-diynoyl phosphonic acid within four days of their initial preparation. It appears from this micrograph that the aggregates are small and relatively spherical compared to the fully saturated aggregates of n-dodecanephosphonic acid prepared as described hereinbelow. The average size of these vesicles is roughly 50 nm in diameter with the sizes of individual aggregates ranging from 4 nm to over 400 nm. […] This behavior was only observed with freshly prepared aggregates prior to their exposure to light. One explanation for this behavior is that it represents an artifact of drying the sample in the presence of the metal stain used to visualize it.
# FIG. 3 is a micrograph of the same sample after one week. It is noteworthy that the vesicles are still spherical though they now appear to be smaller and have a more irregular exterior surface. […] Moreover, there was no evidence of the rolled cylinders previously imaged in the fresh aggregate solutions.
# [3] = pH stability of n-dodecanephosphonic acid aggregates; type: physicochemical; settings: minimal structural changes
# Protocol: (§1) An aggregate was prepared using n-dodecanephosphonic acid. Specifically, a 3×10^−4 molar (on average) solution of n-dodecanephosphonic acid was used, which was prepared by adding 17 mg dodecanephosphonic acid to 250 mL of a 5 mM solution of morpholinoethanesulfonic acid (MES) buffer solution. This solution was heated in a boiling water bath for 40-60 minutes. The solution was then cooled and allowed to sit undisturbed for 3 days (following Shulz' procedure (21)). This preparation was used to produce the desired micelles and the reported critical micelle concentration (CMC) was independently confirmed through measurement of the surface tension by means of a Wilhelmy Plate Balance (22). […] It has also been determined that these aggregates are stable over the pH range of 4-6, with minimal structural changes.
# [4] = TEM size of n-dodecanephosphonic acid aggregates, metal-free and metallated with iron salts; type: physicochemical; settings: metal-free aggregates, 3×10^−4 molar in 5 mM MES
# Protocol: as §1
# The choice of biologically compatible metal ion used to bind to the micelle exterior directly influences the size and the shape of the resulting aggregates. Iron (III) salts are preferred because they are relatively inexpensive, readily available in several simple forms and known to be biologically compatible. However, other metal ions may be used if desired, including, without limitation, Zr (IV), Mg(II), Ca(II), Co(II) and Zn(II) salts. […]
# [5] = reported value, independently confirmed by surface tension measurement; cited from earlier work
average size of aggregates (diameter) ([2]; same sample after one week) [nm],largest vesicles present in the sample ([2]; same sample after one week) [nm],"average size of vesicles (diameter) ([2]; unpolymerized vesicles, within four days of preparation, pH 5.5, 5 mM MES)",pH range over which aggregates are stable [3],average diameter of aggregates [4],Structure (SMILES),solubility in buffered aqueous solutions [1],critical micelle concentration (CMC) [5] [µM]
~50,≤ 100,roughly 50 nm,–,–,"CCCCC#CC#CCCCC(=O)P(=O)(O)O [dodeca-5,7-diynoyl phosphonic acid, Dodeca-5,7-diynoyl phosphonic acid]",readily dissolves in buffered aqueous solutions to form vesicles,–
–,–,–,4-6,20-120 nm,CCCCCCCCCCCCP(=O)(O)O [n-dodecanephosphonic acid],–,294
